The results in this text go back to patent publication US7728040B1, “Polyamine conjugates as selective NMDA inhibitors and anti-cancer drugs” (University of Central Florids Research Foundation, Inc., priority 2002, dated 2010).

One data set deals with NR1/NR2A NMDA receptor (Homo sapiens, UniProt Q05586+Q12879). Briefly: Inhibition of NMDA receptor NR1/NR2A function. It is filed as cell-based.
The test system of another data set is L1210 cells. Briefly: Cytotoxicity in L1210 cells. The data set is classed as cell-based. The settings on record: Mus musculus; L1210 cells, no DFMO; read-out: L1210 IC50.
The next data set has as its system L1210 cells + DFMO. Briefly: Cytotoxicity in L1210 cells pretreated with DFMO. It is filed as cell-based, mouse. As to conditions: for IC50: Mus musculus, L1210 cells pretreated with DFMO, read-out: L1210 + DFMO IC50; for L1210/(L1210 + DFMO) IC50 ratio: fold more toxic in the presence of DFMO.
The subject of another data set is polyamine transporter. Briefly: Ki, affinity for the polyamine transporter in L1210 cells. It is filed as binding, mouse. The method, then: Biological Evaluation. Three cell lines were chosen for bioassay. L1210 (mouse leukemia) cells were selected for comparison with the published IC50 and Ki values determined for a variety of polyamine substrates. In this regard both Ki and IC50 values were measured in this line for comparison purposes. Chinese hamster ovary (CHO) cells were chosen along with a mutant cell line (CHO-MG) in order to comment on polyamine transporter affinity and cell selectivity. The CHO-MG cell line is polyamine-transport deficient and was isolated after chronic selection for growth resistance to methylglyoxalbis (guanylhydrazone). For the purposes of this study, the CHO-MG cell line represents cells with limited polyamine transport activity. In contrast, the parent CHO cell line illustrates cell types with active polyamine transport. Comparison of efficacy in these two lines provided an important screen to detect conjugate delivery via the polyamine transporter, PAT. For example, a conjugate with high utilization of the transporter would be very toxic to CHO cells, but less so to CHO-MG cells. Therefore, IC50 determination in these two CHO lines provided a relative ranking of delivery via the PAT.

The next data set concerns CHO-MG cells. Briefly: Cytotoxicity in CHO-MG cells (polyamine-transport deficient). The data set is classed as cell-based, Chinese hamster. The settings on record: Cricetulus griseus, polyamine-transport deficient line, read-out: CHO-MG IC50.
A further data set concerns CHO cells. Kind of data set: Cytotoxicity in CHO cells (active polyamine transporter). The settings on record: for IC50: Cricetulus griseus, CHO, active polyamine transporter, read-out: CHO IC50; for CHO-MG/CHO IC50 ratio: selectivity for cells with active polyamine transporter. It is filed as cell-based, Chinese hamster.
Data set [1] is described as follows: Metabolic de-alkylation to homospermidine in treated cells. The settings on record: cells treated with compound. It is filed as in vitro ADME. The source says:
N-Alkylpolyamines can be broken down into their de-alkylated components by cellular metabolic pathways. For example, a N-alkyl-4,4-triamine ([…]2, where R is alkyl) can be converted into homospermidine, H2N(CH2)4NH(CH2)4NH2.

The structures appear in SMILES notation. Where only a bound is given, the exact number is not on record here.

Chain of NR1/NR2A NMDA receptor (Q12879 23-1464, other chains not shown): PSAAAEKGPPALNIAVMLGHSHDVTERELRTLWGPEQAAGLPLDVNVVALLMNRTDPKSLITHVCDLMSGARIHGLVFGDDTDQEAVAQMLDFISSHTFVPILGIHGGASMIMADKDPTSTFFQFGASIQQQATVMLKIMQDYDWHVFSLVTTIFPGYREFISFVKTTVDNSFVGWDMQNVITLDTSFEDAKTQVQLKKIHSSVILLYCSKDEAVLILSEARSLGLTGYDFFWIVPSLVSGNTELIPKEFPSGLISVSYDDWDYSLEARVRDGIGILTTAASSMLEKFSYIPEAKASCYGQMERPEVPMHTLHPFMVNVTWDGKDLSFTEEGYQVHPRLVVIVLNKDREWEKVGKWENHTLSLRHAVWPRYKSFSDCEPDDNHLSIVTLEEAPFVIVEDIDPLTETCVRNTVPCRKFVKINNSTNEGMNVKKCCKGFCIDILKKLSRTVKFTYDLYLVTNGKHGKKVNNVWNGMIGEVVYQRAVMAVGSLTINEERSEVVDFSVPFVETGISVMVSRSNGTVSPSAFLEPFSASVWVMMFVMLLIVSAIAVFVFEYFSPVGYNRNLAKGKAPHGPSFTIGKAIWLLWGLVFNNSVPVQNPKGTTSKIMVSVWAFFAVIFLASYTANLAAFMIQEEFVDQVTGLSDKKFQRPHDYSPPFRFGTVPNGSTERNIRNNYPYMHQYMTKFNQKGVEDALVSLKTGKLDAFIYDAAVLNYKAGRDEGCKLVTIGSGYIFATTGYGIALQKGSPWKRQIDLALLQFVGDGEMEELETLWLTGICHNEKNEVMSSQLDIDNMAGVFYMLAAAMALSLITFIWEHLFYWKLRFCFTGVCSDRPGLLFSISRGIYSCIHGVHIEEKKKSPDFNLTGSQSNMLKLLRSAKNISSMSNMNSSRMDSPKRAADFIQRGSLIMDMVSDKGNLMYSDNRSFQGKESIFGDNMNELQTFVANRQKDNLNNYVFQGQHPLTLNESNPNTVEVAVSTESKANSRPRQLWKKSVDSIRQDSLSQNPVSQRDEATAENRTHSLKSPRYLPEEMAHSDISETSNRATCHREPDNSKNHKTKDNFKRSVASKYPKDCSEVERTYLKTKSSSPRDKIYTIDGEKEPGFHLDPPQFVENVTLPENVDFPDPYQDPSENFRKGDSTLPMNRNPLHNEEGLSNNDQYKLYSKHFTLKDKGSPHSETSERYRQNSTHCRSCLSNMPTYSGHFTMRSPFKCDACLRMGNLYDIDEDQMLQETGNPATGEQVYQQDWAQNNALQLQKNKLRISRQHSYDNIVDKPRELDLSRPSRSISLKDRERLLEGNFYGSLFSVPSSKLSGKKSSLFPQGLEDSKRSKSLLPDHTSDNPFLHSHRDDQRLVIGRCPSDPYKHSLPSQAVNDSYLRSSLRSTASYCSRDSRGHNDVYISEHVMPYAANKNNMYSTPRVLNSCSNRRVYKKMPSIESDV

In general, IC50 refers to the concentration that gives 50% inhibition. As for `NCCCNCCCCNCCCN` [Spermine], on NR1/NR2A NMDA receptor, the midpoint of inhibition, the IC50, lay at 519 µM.
As to `c1ccc2cc3ccccc3cc2c1` [Anthracene], at NR1/NR2A NMDA receptor, the “IC50 for NR1/NR2A” value was “no effect” and the “NMDA receptor (NR1A/NR2A) function at the highest dose” value is “greater than 85%”.
In general, Ki refers to a measure of affinity in units of concentration, obtained from inhibition or displacement. Read a low Ki as tighter binding. Consider `Cl.Cl.Cl.NCCCCN(CCCCN)Cc1c2ccccc2cc2ccccc12` [Compound 8e, N-(4-Amino-butyl)-N-anthracen-9-ylmethyl-butane-1,4-diamine, trihydrochloride], for which the IC50 was 0.3 µM with L1210 cells, 0.15 µM with L1210 cells + DFMO, 66.7 µM in the data set with CHO-MG cells and 0.45 µM with CHO cells. The Ki with polyamine transporter was 1.8 µM. For the same compound, the “CHO-MG/CHO IC50 ratio” value in the data set with CHO cells (trihydrochloride) worked out at 148. The “formation of homospermidine in treated cells (de-alkylation)” value in data set [1] is listed as “did not form homospermidine”.
As to `Cl.Cl.Cl.NCCCCNCCCCNCc1cccc2ccccc12` [Compound 27b, N-(4-Amino-butyl)-N′-naphthalen-1-ylmethyl-butane-1,4-diamine Trihydrochloride], the IC50 with L1210 cells is 0.5 µM; in the data set on L1210 cells + DFMO, 0.43 µM; in the data set on CHO-MG cells it was over 100 µM; in the data set on CHO cells, 0.6 µM. In addition, the “L1210/(L1210 + DFMO) IC50 ratio” value with L1210 cells + DFMO stood at 1.1. The Ki in the data set on polyamine transporter stood at 3.8 µM. Moreover, the “CHO-MG/CHO IC50 ratio” value is over 164 with CHO cells (listed as 27c, Trihydrochloride) and over 164 with CHO cells (trihydrochloride).
Consider `Cl.Cl.NCCCCCCCCNCc1c2ccccc2cc2ccccc12` [Compound 32, N^1-Anthracen-9-ylmethyl-octane-1,8-diamine Dihydrochloride], for which the IC50 with L1210 cells turned out to be 3 µM; in the data set on L1210 cells + DFMO it was 4.6 µM; in the data set on CHO-MG cells it was 4.9 µM; in the data set on CHO cells it was 4.9 µM. In the data set on L1210 cells + DFMO, the “L1210/(L1210 + DFMO) IC50 ratio” value turned out to be 0.7. This compound also yielded a Ki in the data set on polyamine transporter of 13.3 µM. Further, the “CHO-MG/CHO IC50 ratio” value in the data set with CHO cells was found to be 1.
Consider `Cl.Cl.Cl.NCC(O)CNCCCCNCc1c2ccccc2cc2ccccc12` (centres unmarked) [Compound 30, 1-Amino-3-{4-[(anthracen-9-ylmethyl)-amino]-butylamino}-propan-2-ol Trihydrochloride], for which the IC50 in the data set on L1210 cells stood at 1.5 µM; in the data set with L1210 cells + DFMO, 2.3 µM; with CHO-MG cells, 9.5 µM; with CHO cells, 9.1 µM. In the data set with L1210 cells + DFMO, the “L1210/(L1210 + DFMO) IC50 ratio” value was 0.7. Moreover, the Ki with polyamine transporter came to 12.5 µM. The “CHO-MG/CHO IC50 ratio” value in the data set on CHO cells was found to be 1.
